Assay results from article PMC4865820, “Branched Peptide, B2088, Disrupts the Supramolecular Organization of Lipopolysaccharides and Sensitizes the Gram-negative Bacteria” (Scientific Reports, 2016).
Positions of bridges follow the written chain, without caps; N, C: chain ends. Non-standard residues stand in square brackets, D forms with d. Residues, ends and D or L forms follow the SMILES beside them. Chains are numbered I, II in the order given. *: point of attachment. X1 = CC[C@H](C)CCCCC(=O)*; Dab = NCC[C@H](N)C(=O)O

Assays:
FITC-labelled LPS = experiment: FITC-LPS fluorescence interaction assay; format: binding; conditions: 5 μg/ml FITC-LPS, ex 485/em 515 nm, 25 °C
From the text: To confirm the findings from ITC experiments, we examined the ultrastructure of LPS or the LPS/B2088 complex by electron microscopy. TEM analysis of the LPS indicated a ribbon-like structure (Fig. 3a), consistent with previous studies. For the LPS-B2088 complex, the peptide:LPS ratios were chosen to epitomize the initial (high peptide:LPS) or final (low peptide:LPS) injections of the ITC curves shown in Fig. 2a–c. At low peptide:LPS ratio (~0.04), more electron-dense surface appeared presumably due to binding of the peptide to LPS may cause partial/complete neutralization of the negative charges and the ribbon-like structure of LPS remained intact (Fig. 3b). […]
The interaction between FITC-LPS was determined by monitoring the change in fluorescence emission intensity (λex = 485 nm and λem = 515 nm) using a Quanta Master spectrophotometer (Photon Technology International, NJ, USA) with a constant slit width of 0.5 nm at 25 °C. Briefly, the emission intensity of 5 μg/ml of FITC-LPS was monitored continuously in a 1 ml cuvette until it remained constant. 10 μl a concentrated stock solution of B2088 was added and the changes in fluorescence intensity were recorded as before.

[1] = tested on: P. aeruginosa ATCC 9027 and P. aeruginosa DM4877/07 strains; experiment: Time-kill kinetics; format: cell-based; conditions: ¼ × MIC of B2088 alone, 0–24 h, MHB, 37 °C
From the text: It is likely that disruption of the supramolecular organization of LPS could enhance the intracellular accessibility of the antibiotics thus rendering the micro-organisms susceptible at sub-lethal concentration of the drugs. To confirm this, we performed time-kill kinetics at sub-lethal concentration of B2088, antibiotics and their combinations against two different P. aeruginosa strains. […] The effect was quite remarkable for the B2088-gatifloxacin combination as >5 log10 reduction in CFU/ml was apparent in less than 2 h against two different P. aeruginosa strains.
Figure 6 Antimicrobial efficacy of B2088-antibiotics combinations. Time-kill kinetics showing synergism between B2088 and other antibiotics. (a) B2088 and gatifloxacin against P. aeruginosa ATCC 9027 strains. (b) B2088 and gatifloxacin against P. aeruginosa DM4877/07 strains. (c) B2088 and tobramycin against P. aeruginosa DM4877/07 strains. (d) B2088 and chloramphenicol against P. aeruginosa DM4877/07 strains. Note that for simplicity B2088 and the antibiotics are represented by single letter codes (B – B2088, G – gatifloxacin, T – tobramycin, C – chloramphenicol).
The kinetics of bactericidal action of is assessed by using each drug alone or in combinations at their sub-inhibitory MICs. […]

[2] = tested on: LPS (E. coli serotype 055:B5); conditions: ref Torrent et al. [24]; cited from earlier work
From the text: To investigate the interaction of B2088 with LPS, we performed the BODIPY TR cadaverine (BC) displacement assay reported by Wood et al.[22]. The probe binds to the lipid A part of the LPS with moderate affinity and can be displaced by putative LPS-binding molecules. The method was used to probe the affinity of polycationic molecules and LPS binding proteins. First, we determined the affinity of polymyxin B (PMB), a lipopeptide cyclic antibiotic which has a high affinity for LPS.

| SMILES | Peptide concentration above which dequenching of FITC-LPS fluorescence occurred (FITC-labelled LPS) | Time-kill outcome [1] | ED50 (BC displacement from LPS), literature value [2] [µM] |
| --- | --- | --- | --- |
| CC(C)[C@H](NC(=O)[C@H](CCCCN)NC(=O)[C@H](CCCNC(=N)N)NC(=O)CNC(=O)[C@@H](N)CCCNC(=N)N)C(=O)N[C@H](C(=O)N[C@@H](CCCNC(=N)N)C(=O)N[C@@H](CCCNC(=N)N)C(=O)NCCCC[C@H](NC(=O)[C@H](CCCNC(=N)N)NC(=O)[C@H](CCCNC(=N)N)NC(=O)[C@@H](NC(=O)[C@@H](NC(=O)[C@H](CCCCN)NC(=O)[C@H](CCCNC(=N)N)NC(=O)CNC(=O)[C@@H](N)CCCNC(=N)N)C(C)C)C(C)C)C(=O)N[C@@H](CCCCN)C(=O)O)C(C)C [B2088] (I: H-RGRKVVRRKK-OH / II: H-RGRKVVRR; amide I:9-II:C; N-terminus and C-terminus assumed) | above 25 μg/ml | no bacteriostatic or bactericidal activity |  |
| CC[C@H](C)CCCCC(=O)N[C@@H](CCN)C(=O)N[C@H](C(=O)N[C@@H](CCN)C(=O)N[C@H]1CCNC(=O)[C@H]([C@@H](C)O)NC(=O)[C@H](CCN)NC(=O)[C@H](CCN)NC(=O)[C@H](CC(C)C)NC(=O)[C@@H](Cc2ccccc2)NC(=O)[C@H](CCN)NC1=O)[C@@H](C)O [Polymyxin B, polymyxin B, reference compound] (X1-[Dab]T[Dab][Dab][Dab][dF]L[Dab][Dab]T; lactam 4-C (inferred); N-terminus assumed) |  |  | 2.5 ± 0.1 |
